Patent publication US10316028B2, “Orexin receptor antagonists” (Heptares Therapeutics Limited, priority 2012, dated 2019)
Where two headings read alike, the source gives them in different places.

Key:
[1] = tested on: rat CT18 sleep model; assay: Rat telemetered sleep study (rat CT18 sleep model); assay type: in vivo; conditions: male CD rats
Method: Rat Telemetered Sleep Study
Example 100 was assessed for activity in a rat CT18 sleep model. Adult male CD rats (250-300 g) were implanted with telemetric probes fixed to the skull to record cortical electroencephalogram (EEG), and with telemetric probes fixed to the skeletal muscles of the neck to record electromyogram (neck EMG), and allowed to recover for 3 weeks to re-establish normal sleep patterns. Rats were administered with example 100 (3, 10 and 30 mg/kg, po) or vehicle (80% v/v PEG400, 20% v/v Cremophor EL, 2 ml/kg) at Circadian Time (CT) 18, six hours after lights off. EEG and neck EMG traces were recorded for 5 hours after treatment and analysed to determine time spent awake and in NREM sleep and REM sleep.

[2] = target: T1, human Orexin-2 receptor (Homo sapiens, UniProt O43614); assay: 3H-EMPA radioligand binding assay; conditions: 3H-EMPA displacement, membranes of HEK293 cells transfected with human Orexin-2 receptor; KI by Cheng-Prussoff; read-out: OX2 pKi ave (converted)
T1 construct: expressed in transfected cells; host or cells: HEK293 cells (transient transfection, Genejuice); membranes
T1 sequence (O43614 1-444): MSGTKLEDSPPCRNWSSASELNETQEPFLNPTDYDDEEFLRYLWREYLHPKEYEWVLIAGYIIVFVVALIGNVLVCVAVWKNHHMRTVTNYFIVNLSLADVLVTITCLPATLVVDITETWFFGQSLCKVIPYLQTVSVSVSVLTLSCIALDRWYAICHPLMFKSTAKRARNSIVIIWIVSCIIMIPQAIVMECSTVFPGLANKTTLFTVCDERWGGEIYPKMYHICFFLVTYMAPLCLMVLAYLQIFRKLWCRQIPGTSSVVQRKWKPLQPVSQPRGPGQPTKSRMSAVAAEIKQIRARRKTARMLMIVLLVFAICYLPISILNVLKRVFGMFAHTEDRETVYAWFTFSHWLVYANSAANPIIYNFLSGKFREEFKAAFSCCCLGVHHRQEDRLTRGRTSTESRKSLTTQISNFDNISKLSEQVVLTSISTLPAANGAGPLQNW
How it was run: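 Membranes from HEK293 cells transiently transfected with human orexin-2 receptor cDNA, assayed with [3H]EMPA. Bound ligand collected on PEI-treated GF/B filters and counted by scintillation; IC50 from inhibition curves, Ki by Cheng-Prusoff.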

[3] = target: T2, cortical orexin-2 receptors (Rattus norvegicus, UniProt P56719); assay: Ex vivo orexin-2 receptor occupancy; assay type: in vivo; conditions: for ED50: po
T2 construct: from tissue; host or cells: rat brain cortex sections (Sprague Dawley)
T2 sequence (P56719 1-460): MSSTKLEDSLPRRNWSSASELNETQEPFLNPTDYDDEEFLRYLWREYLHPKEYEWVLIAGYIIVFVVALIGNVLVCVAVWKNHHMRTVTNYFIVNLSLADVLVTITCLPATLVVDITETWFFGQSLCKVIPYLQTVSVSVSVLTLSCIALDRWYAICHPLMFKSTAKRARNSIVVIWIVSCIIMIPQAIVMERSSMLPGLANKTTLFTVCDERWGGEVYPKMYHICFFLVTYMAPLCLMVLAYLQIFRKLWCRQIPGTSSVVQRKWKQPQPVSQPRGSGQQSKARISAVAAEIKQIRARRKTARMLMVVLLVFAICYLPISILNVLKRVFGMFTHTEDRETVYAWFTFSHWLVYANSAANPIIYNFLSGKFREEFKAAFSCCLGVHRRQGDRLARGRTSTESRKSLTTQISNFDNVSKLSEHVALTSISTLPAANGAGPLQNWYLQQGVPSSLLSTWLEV
Method: Ex Vivo Orexin-2 Receptor Occupancy
Male Sprague Dawley rats were dosed orally with either vehicle, example 145, (0.3-10 mg/kg po) or example 100, (1 mg/kg, po). Vehicle for example 145 was 90% PEG400/10% Tween-80; for example 100 10% DMAC+10% Solutol+80% (10% HPβCD in water). 1 h post-dose, animals were sacrificed and brains removed. A coronal block containing the cortex was rapidly frozen in isopentane for sectioning and autoradiography. 20 μm thick sections were mounted onto slides and incubated with [^3H]EMPA (total binding) or [^3H]EMPA and 1 μM TCS OX2 29 (non-specific binding) for 20 min at rt. Binding was terminated by aspiration and washing with ice-cold assay buffer and allowed to air dry. Levels of bound radioactivity in the sections were determined using a beta imager over a 16 h period. Occupancy was determined as mean specific binding with the vehicle treated control taken as 100%.

[4] = tested on: preclinical sleep models; conditions: in vivo; cited from earlier work
[5] = tested on: patients with primary insomnia; conditions: Phase II; cited from earlier work
[6] = tested on: primary insomnia patients; conditions: Phase IIb study; cited from earlier work
[7] = 3 mg/kg po at CT18, ANOVA over 3 hours post-treatment

COc1cc(N2C(=O)N(Cc3c(F)cc(F)cc3F)c3ncccc3S2(=O)=O)cnc1OC [Example 100, 2-(5,6-Dimethoxypyridin-3-yl)-4-(2,4,6-trifluorobenzyl)-2H-pyrido[2,3-e][1,2,4]thiadiazin-3(4H)-one 1,1-dioxide]
NREM sleep [1, 7]: statistically significant increases
REM sleep [1, 7]: statistically significant increases
time spent awake [1, 7]: statistically significant decrease
Ki [2]: 2.45 nM
ED50 ([3]; rat, inferred from 57% occupancy at 1 mg/kg, read-out: ED50 value of orexin-2 receptor occupancy (suggested from single dose)): < 1 mg/kg
receptor occupancy at 1 mg/kg ([3]; rat, male Sprague Dawley rats, 1 mg/kg po, 1 h post-dose): 57%

COc1cc(N2C(=O)N(Cc3c(F)cc(F)cc3F)c3ccccc3S2(=O)=O)cnc1OC [Example 145, 2-(5,6-Dimethoxypyridin-3-yl)-4-(2,4,6-trifluorobenzyl)-2H-1,2,4-benzothiadiazin-3(4H)-one 1,1-dioxide]
Ki [2]: 4.68 nM
occupancy of cortical orexin-2 receptors, dose dependence ([3]; male Sprague Dawley rats, 0.3-10 mg/kg po, 1 h post-dose): dose dependent manner
ED50 ([3]; rat, male Sprague Dawley rats, 0.3-10 mg/kg, 1 h post-dose, estimated, read-out: ED50 of cortical orexin-2 receptor occupancy): 5.8 mg/kg

Cc1ccc(-c2ncccn2)c(C(=O)N2C[C@H](COc3ccc(F)cn3)CC[C@H]2C)c1 [MK-6096]
efficacy in preclinical sleep models [4]: shows efficacy

CNC(=O)[C@@H](c1ccccc1)N1CCc2cc(OC)c(OC)cc2[C@@H]1CCc1ccc(C(F)(F)F)cc1 [almorexant]
sleep efficiency [5]: dose-dependently increased

Cc1ccc(-n2nccn2)c(C(=O)N2CCN(c3nc4cc(Cl)ccc4o3)CC[C@H]2C)c1 [suvorexant]
sleep efficiency [6]: increased

Cc1ccc(-c2nc3ccc(C)cn3c2CC(=O)N(C)C)cc1 [zolpidem, reference compound]
NREM latency ([1]; positive control, CT18): decrease
NREM sleep ([1]; positive control, CT18): increase
time spent awake ([1]; positive control, CT18): decrease
